Tested on: RAW264.7 cells cultured with LPS
Assay: Cell death of RAW264.7 cells cultured with LPS
Assay type: cell-based, mouse
Details: DHMBA 1 or 10 μM, LPS 100 ng/ml, 48 hours, subconfluent cells
Description: In FIG. 5A, to examine the effect on cell proliferation, RAW264.7 cells (1×10^5/ml/well) were cultured for 3 days in a DMEM culture medium containing 10% FBS, 1% P/S, and 1% fungizone in the control group (1% ethanol as final concentration) with or without LPS (1, 10, 50, 100, 500 ng/ml). In FIG. 5B, cells (1×10^5/ml per well) were cultured for 3 days in a DMEM culture medium containing 10% FBS, 1% P/S, and 1% fungizone in the DHMBA-treated group (1 or 10 μM) with or without LPS (100 ng/ml). In FIG. 5C, to examine the effect on cell death, cells that had reached subconfluence after 3 days of culture were cultured for another 48 hours in the control group (1% ethanol) with or without LPS (1, 10, 50, 100, or 500 ng/ml). […] After the culture, the number of cells attached to the dish was counted. […]
In an additional experiment, to determine the effect of DHMBA on RAW264.7 cell death, RAW264.7 cells were cultured in the presence of LPS. […] After the culture, the cells were detached with a Ca^2+/Mg^2+ free PBS solution with 0.05% trypsin/EDTA (0.1 ml per well) as described in the “Cell proliferation assay” section, and the cells were counted as described in the “Cell count” section below. […]
The number of viable cells was counted under a microscope (Olympus MTV-3) using a hemocytometer (Sigma-Aldrich) and a cell counter (H-102P, Line Seiki Co., Ltd., Tokyo, Japan).

With `COc1c(O)cc(CO)cc1O` [DHMBA, 3,5-dihydroxy-4-methoxybenzyl alcohol] the “effect on RAW264.7 cell death in the presence of LPS” value was “exhibited”.
